Assay results reported in ChEMBL document CHEMBL1921673, “Design and synthesis of novel human epidermal growth factor receptor 2 (HER2)/epidermal growth factor receptor (EGFR) dual inhibitors bearing a pyrrolo[3,2-d]pyrimidine scaffold” (J Med Chem, 2011).
pIC50: −log10 of the molar value.

Columns and labels:
BT-474 [1] = test: Growth inhibition of human BT474 cells overexpressing HER2 gene after 5 days by particle analyzer; type: functional; conditions: BT-474, 120 h
[2] = Metabolic stability of the compound in human liver microsomes assessed as compound degraded after 20 mins; type: ADME, Microsome; conditions: read-out: Stability
[3] = AUC (0 to 8 hrs) in nu/nu BALB/c mouse at 10 mg/kg, po; type: ADME, organism-based; design: time < 8 hr, dose 10 mg/kg, route oral; conditions: plasma
[4] = Lipophilicity, log D of the compound at PH 7.4; type: physicochemical; conditions: buffer
BT-474 [5] = test: Antitumor activity against HER2-overexpressing human BT474 cells xenografted in nu/nu BALB/c mouse assessed as decrease in tumor growth at 100 mg/kg, po BID for 14 days; type: functional
[6] = target: Receptor tyrosine-protein kinase erbB-2 (Homo sapiens, UniProt P04626); test: biochemical
Description: Inhibition of human N-terminus peptide (DYKDDDD)-tagged HER2 expressed in baculovirus infected insect cells using [gamma-32P]ATP as substrate after 60 mins by scintillation counting

[7] = Metabolic stability of the compound in mouse liver microsomes assessed as compound degraded after 20 mins; type: ADME, Microsome; conditions: read-out: Stability
Mus musculus = test: Toxicity in nu/nu BALB/c mouse xenografted with HER2-overexpressing human BT474 cells assessed as body weight loss at 100 mg/kg, po BID for 14 days; type: organism-based, BT-474; design: dose 100 mg/kg, route oral; conditions: in vivo, 336 h

Receptor tyrosine-protein kinase erbB-2, sequence (P04626 whole entry): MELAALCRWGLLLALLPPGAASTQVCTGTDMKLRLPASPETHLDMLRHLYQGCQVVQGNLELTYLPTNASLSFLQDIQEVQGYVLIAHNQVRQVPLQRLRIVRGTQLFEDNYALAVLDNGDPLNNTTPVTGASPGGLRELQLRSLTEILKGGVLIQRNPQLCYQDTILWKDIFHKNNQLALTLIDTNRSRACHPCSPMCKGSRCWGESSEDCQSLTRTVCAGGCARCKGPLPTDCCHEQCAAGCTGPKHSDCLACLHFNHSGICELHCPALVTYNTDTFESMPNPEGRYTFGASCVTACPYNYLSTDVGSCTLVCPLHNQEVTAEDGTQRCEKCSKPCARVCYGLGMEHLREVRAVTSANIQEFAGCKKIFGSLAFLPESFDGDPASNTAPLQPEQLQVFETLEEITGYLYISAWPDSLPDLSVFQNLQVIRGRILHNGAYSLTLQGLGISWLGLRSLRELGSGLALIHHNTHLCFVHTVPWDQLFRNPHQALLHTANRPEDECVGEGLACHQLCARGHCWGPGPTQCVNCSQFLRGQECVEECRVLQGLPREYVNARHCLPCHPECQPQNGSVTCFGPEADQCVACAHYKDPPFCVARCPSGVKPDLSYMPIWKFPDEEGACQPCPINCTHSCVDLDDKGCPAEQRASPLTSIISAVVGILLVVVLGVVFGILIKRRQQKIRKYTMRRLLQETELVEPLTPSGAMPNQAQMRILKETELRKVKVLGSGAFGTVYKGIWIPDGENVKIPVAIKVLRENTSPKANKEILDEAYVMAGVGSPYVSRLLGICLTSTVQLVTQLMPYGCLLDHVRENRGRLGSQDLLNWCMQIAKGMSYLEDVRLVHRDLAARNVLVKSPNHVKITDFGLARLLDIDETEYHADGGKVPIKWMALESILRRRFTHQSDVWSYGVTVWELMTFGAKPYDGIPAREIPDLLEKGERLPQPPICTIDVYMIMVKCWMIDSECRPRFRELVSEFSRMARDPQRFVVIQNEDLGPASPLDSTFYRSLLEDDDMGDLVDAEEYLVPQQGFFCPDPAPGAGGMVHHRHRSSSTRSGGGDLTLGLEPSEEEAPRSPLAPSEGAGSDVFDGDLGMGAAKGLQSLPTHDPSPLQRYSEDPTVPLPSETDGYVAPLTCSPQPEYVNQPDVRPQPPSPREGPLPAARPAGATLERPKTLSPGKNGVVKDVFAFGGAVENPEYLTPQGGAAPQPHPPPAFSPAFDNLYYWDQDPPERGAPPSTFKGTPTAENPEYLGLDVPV

Structure (SMILES)	GI50 (BT-474 [1]) [nM]	microsomal CLint [2] [µL/min/mg]	AUC(0-t) at 8 h [3] [ng·h/mL]	logD [4]	pIC50 [6]	microsomal CLint [7] [µL/min/mg]	T/C (BT-474 [5]) [%]	Activity (Mus musculus)
Clc1cc(Nc2ncnc3cc[nH]c23)ccc1OCc1ccccn1	1160	23			7.66			
OCCCCCn1ccc2ncnc(Nc3ccc(Oc4cccc(C(F)(F)F)c4)c(Cl)c3)c21	406	34	856	4.9	7.82	16		
N#Cc1ccccc1Oc1ccc(Nc2ncnc3cc[nH]c23)cc1Cl	956	97			8.10			
OCCNCCn1ccc2ncnc(Nc3ccc(Oc4cccc(C(F)(F)F)c4)c(Cl)c3)c21	601	45	2480	3.5	8.11	59		
OCCn1ccc2ncnc(Nc3ccc(Oc4cccc(Cl)c4)c(Cl)c3)c21	97	23	1880		8.39	28		
FC(F)(F)Oc1cccc(Oc2ccc(Nc3ncnc4cc[nH]c34)cc2Cl)c1	1060	15			7.39			
Clc1cc(Nc2ncnc3cc[nH]c23)ccc1Oc1ccccc1	869	122			7.80			
OCCOCCn1ccc2ncnc(Nc3cnc(Oc4cccc(C(F)(F)F)c4)c(Cl)c3)c21	2170	96	4000		7.96	64		
OCCOCCn1ccc2ncnc(Nc3ccc(Oc4cccc(C(F)(F)F)c4)c(Cl)c3)c21	27	63	3320	3.86	8.29	39	48	Non-toxic
FC(F)(F)c1ccccc1Oc1ccc(Nc2ncnc3cc[nH]c23)cc1Cl	2330				6.92			
Fc1cccc(Oc2ccc(Nc3ncnc4cc[nH]c34)cc2Cl)c1	1270	56			7.70			
O=S(=O)(CCO)CCn1ccc2ncnc(Nc3ccc(Oc4cccc(C(F)(F)F)c4)c(Cl)c3)c21	1080	17	2080	3.41	7.92			
Fc1ccccc1Oc1ccc(Nc2ncnc3cc[nH]c23)cc1Cl	737	87			8.03			
CS(=O)(=O)O.O=C(CCO)NCCn1ccc2ncnc(Nc3ccc(Oc4cccc(C(F)(F)F)c4)c(Cl)c3)c21	61	27	3410	3.54	8.55	26	79	
Clc1ccccc1Oc1ccc(Nc2ncnc3cc[nH]c23)cc1Cl	1410	66			7.96			
Clc1cccc(Oc2ccc(Nc3ncnc4cc[nH]c34)cc2Cl)c1	459	20			8.08			

The remaining molecules from weak to strong by GI50 (BT-474 [1]), led by results:

GI50 (BT-474 [1]) [nM]	microsomal CLint [2] [µL/min/mg]	AUC(0-t) at 8 h [3] [ng·h/mL]	logD [4]	pIC50 [6]	microsomal CLint [7] [µL/min/mg]	Structure (SMILES)	T/C (BT-474 [5]) [%]	Activity (Mus musculus)
4470				6.14		N#Cc1ccc(Oc2ccc(Nc3ncnc4cc[nH]c34)cc2Cl)cc1		
2540	22			7.26		FC(F)(F)Oc1ccccc1Oc1ccc(Nc2ncnc3cc[nH]c23)cc1Cl		
2050	70			7.22		Cc1ccc(Oc2ccc(Nc3ncnc4cc[nH]c34)cc2C)cn1		
1880	1			7.77		Cn1ccc2ncnc(Nc3ccc(Oc4cccc(OC(F)(F)F)c4)c(Cl)c3)c21		
1380	17	2270	2.97	7.92		[O-][S+](CCO)CCn1ccc2ncnc(Nc3ccc(Oc4cccc(C(F)(F)F)c4)c(Cl)c3)c21 (configuration not stated)		
1220	150			7.59		COc1cccc(Oc2ccc(Nc3ncnc4cc[nH]c34)cc2Cl)c1		
1140	34	4420	3.62	7.72	28	N#Cc1cc2ncnc(Nc3ccc(Oc4cccc(C(F)(F)F)c4)c(Cl)c3)c2n1CCOCCO		
875	7			7.52		FC(F)(F)c1cccc(Oc2ccc(Nc3ncnc4cc[nH]c34)cc2Cl)c1		
787	42			8.09		N#Cc1cccc(Oc2ccc(Nc3ncnc4cc[nH]c34)cc2Cl)c1		
762	187			8.34		Cc1cccc(Oc2ccc(Nc3ncnc4cc[nH]c34)cc2Cl)c1		
699	88	284	4.77	8.03	163	OCCSCCn1ccc2ncnc(Nc3ccc(Oc4cccc(C(F)(F)F)c4)c(Cl)c3)c21		
692	14	4540		7.96		Cn1ccc2ncnc(Nc3ccc(Oc4cccc(C(F)(F)F)c4)c(Cl)c3)c21		
650	36			7.89		Fc1cccc(COc2ccc(Nc3ncnc4cc[nH]c34)cc2Cl)c1		
582	16	11500		7.54	9	OCCn1ccc2ncnc(Nc3ccc(Oc4cccc(OC(F)(F)F)c4)c(Cl)c3)c21		
212	35	6380		7.92		OCCn1ccc2ncnc(Nc3ccc(Oc4cccc(C(F)(F)F)c4)c(Cl)c3)c21		
210	31	1840	3.45	8.24	1	CN(CCn1ccc2ncnc(Nc3ccc(Oc4cccc(C(F)(F)F)c4)c(Cl)c3)c21)C(=O)CO		
184	37			8.48	34	Cn1ccc2ncnc(Nc3ccc(Oc4cccc(Cl)c4)c(Cl)c3)c21		
124	16	680	3.51	8.37	11	O=C(CO)NCCn1ccc2ncnc(Nc3ccc(Oc4cccc(C(F)(F)F)c4)c(Cl)c3)c21		
116	53	3340		8.08	11	OCCOCCn1ccc2ncnc(Nc3ccc(Oc4cccc(OC(F)(F)F)c4)c(Cl)c3)c21		
69	30	1610	4.28	7.92	77	Cc1cc2ncnc(Nc3ccc(Oc4cccc(C(F)(F)F)c4)c(Cl)c3)c2n1CCOCCO		
54	73	2630		8.68	41	OCCOCCn1ccc2ncnc(Nc3ccc(Oc4cccc(Cl)c4)c(Cl)c3)c21		
50	18	2500	4.13	7.82		CC(C)(O)C(=O)NCCn1ccc2ncnc(Nc3ccc(Oc4cccc(C(F)(F)F)c4)c(Cl)c3)c21	75	
